This note sets out measurements from PMC10039885, “Unnatural activities and mechanistic insights of cytochrome P450 PikC gained from site-specific mutagenesis by non-canonical amino acids” (Nature Communications, 2023).

The target in the assay is T1, PikC (PikCWT; cytochrome P450 CYP107L1) (Streptomyces venezuelae, UniProt O87605).
T1 construct: pET28a-pikC, expressed in E. coli BL21(DE3), Ni-NTA purified; heme protein
T1 sequence (O87605 1-416): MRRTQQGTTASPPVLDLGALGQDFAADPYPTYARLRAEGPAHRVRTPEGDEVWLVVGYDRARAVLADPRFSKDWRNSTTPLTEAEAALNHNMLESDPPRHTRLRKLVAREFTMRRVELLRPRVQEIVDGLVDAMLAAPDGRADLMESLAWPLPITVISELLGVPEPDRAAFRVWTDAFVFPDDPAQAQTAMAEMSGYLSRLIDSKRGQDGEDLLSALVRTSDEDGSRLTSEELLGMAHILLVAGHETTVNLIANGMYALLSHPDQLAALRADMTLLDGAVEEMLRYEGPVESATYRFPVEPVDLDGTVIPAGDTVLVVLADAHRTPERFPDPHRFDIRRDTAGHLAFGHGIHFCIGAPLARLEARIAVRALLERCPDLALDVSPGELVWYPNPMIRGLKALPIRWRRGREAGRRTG
Description: UV-vis difference spectral titration ([…]-420 nm). Type of assay: binding.

In the case of `CC[C@H]1OC(=O)[C@H](C)[C@@H](O[C@@H]2O[C@H](C)C[C@H](N(C)C)[C@H]2O)[C@@H](C)C[C@@H](C)C(=O)/C=C/[C@H]1C` [compound 4, YC-17], the affinity, expressed as Kd, was 178 µM.
For `CC[C@H]1OC(=O)[C@H](C)C(=O)[C@H](C)[C@@H](O[C@@H]2O[C@H](C)C[C@H](N(C)C)[C@H]2O)[C@@H](C)C[C@@H](C)C(=O)/C=C/[C@H]1C` [compound 5, narbomycin] the value was 374 µM.
